Data reported in US20100099741A1, “Molecular Targets for Treatment of Learning and Memory Dysfunction” (priority 2008, published 2010).

Key:
CREB [1] = experiment: Western blot of CREB activity (Ser133 phosphorylation) in primary neurons after neurotransmitter ligands, forskolin or H-89; format: cell-based, rat
Source text: With the primary neuronal cultures, we tested the ability of the constructed Boolean network to correctly predict the output activity, following an increase in the concentration of each input molecules. According to the logic equations of the CREB network (1), which provide the on/off state of CREB in response to the on/off states of input neurotransmitters (1), serotonin is the only input activates CREB. To verify this prediction experimentally, we treated primary neurons with equal micromolar concentrations (10 μM) of serotonin, glutamate, dopamine, GABA, and adenosine for 15 minutes and measured the activity of CREB by monitoring Ser133 phosphorylation (14). Receptors of these neurotransmitters are expressed in the primary cortical culture and this concentration is used in the literature to activate these receptors (17-22).
We also tried to verify the biological relevance of the stuck-at-1 and stuck-at-0 fault models used in Abdi et al (1). We tested the effect of serotonin on the activity of CREB when PKA, a highly vulnerable molecule in this network, is either activated (stuck-at-1) or inhibited (stuck-at-0), by forskolin or H-89, respectively. When PKA is stuck-at-1 or 0, the model predicts that serotonin should no longer activate CREB (1). To verify this experimentally, we treated primary neurons with serotonin in the presence or absence of either forskolin or H-89 (FIG. 1E). […] Thus, when the highly vulnerable molecule PKA is stuck-at-1, the network output is not correctly regulated by the input. […] Immunofluorescent analysis of CREB phosphorylation in primary neuron cultures exposed to vehicle, forskolin, or serotonin individually, or to serotonin following treatment with forskolin, was consistent with the results obtained by Western blotting for CREB phosphorylation. The cells were triple labeled with antibodies against Ser133 CREB (as a measure of CREB activity), Map-2 (as a marker that specifically labels neurons), and DRAQ-5 (as a nuclear marker that stains the nucleus of neuronal and normeuronal cells in primary culture). […] Consistent with the Western blot data (FIG. 1E), the effect of serotonin on the activity of CREB in neurons is attenuated, when serotonin was added after treatment with forskolin. […]
Protein extraction, and immunoblot analysis. […] Protein concentration was measured by Bio-Rad's protein assay and spectrometry at 595° A. Equal amounts of total protein were loaded on 4-12% gradient Bis-Tris gels, separated using the NuPAGE system (Invitrogen) and transferred onto nitrocellulose membrane. The membrane was probed with primary and secondary antibodies and signals were detected by chemiluminescence followed by autoradiography. […]

CREB [2] = experiment: Immunofluorescent analysis of CREB phosphorylation (Ser133) in primary cortical culture; format: cell-based, rat
Source text: FIG. 6. Immunofluorescent analysis of primary cortical culture following treatment with vehicle, forskolin, serotonin, or serotonin and forskolin. Red represents the phosphorylated CREB (Ser^133) as a measure of CREB activity. Green represents the Map-2 staining as a specific neuronal marker and blue represent DRAQ-5 nuclear staining of all the cells in the primary culture (both neuronal and glial cells). Images were captured with the same confocal parameters for the four different treatment conditions.
We also tried to verify the biological relevance of the stuck-at-1 and stuck-at-0 fault models used in Abdi et al (1). We tested the effect of serotonin on the activity of CREB when PKA, a highly vulnerable molecule in this network, is either activated (stuck-at-1) or inhibited (stuck-at-0), by forskolin or H-89, respectively. When PKA is stuck-at-1 or 0, the model predicts that serotonin should no longer activate CREB (1). To verify this experimentally, we treated primary neurons with serotonin in the presence or absence of either forskolin or H-89 (FIG. 1E). […] Thus, when the highly vulnerable molecule PKA is stuck-at-1, the network output is not correctly regulated by the input. […]

CREB [3] = conditions: previous studies (reference 18); cited from earlier work
CREB [4] = experiment: Western blot of endogenous CREB Ser133 phosphorylation and total CREB protein in primary cortical neurons after P/Q-type calcium channel or Gαi agonist/antagonist treatment; format: cell-based, rat
Description: We altered the activity or abundance of endogenous L AND/OR P/Q-type calcium channels and Gαi in primary cortical neurons from rats and then assayed for the changes in endogenous CREB activity or abundance (see Methods). We used primary neuronal culture as a model system because it has the most similar CREB signaling network to the in vivo signaling networks of the mammalian brain.
Primary cortical culture. Primary cortical cultures were prepared from brains of embryonic day 17 to 18 Sprague-Dawley rats (Charles River). After trituration of cortical sections with a glass pipette, 2 to 4×10^5 neurons were plated on a coverslip (diameter: 12 mm) precoated with poly d-lysine (BD Biocoat). For biochemical analysis, primary cortical cells were plated in 35 mm dishes precoated with poly d-lysine (˜3×10^6 neurons/dish). Neurons were grown in NEUROBASAL Medium supplemented with 0.5 mM L-glutamine, B27 (2%), and N2 (1%) supplements.
Protein extraction, and immunoblot analysis. Primary neurons were cultured as described. Cells were homogenized in ice cold lysate buffer (0.25 M Tris, pH 7.5) containing protease inhibitors (Protease Inhibitor Cocktail tablets, Boehringer Mannheim) and phosphatase inhibitors (Phosphatase Inhibitor Cocktails I & II, Sigma) and lysed through three cycles of freezing (in liquid nitrogen) and thawing (in 37° C. water bath). Protein concentration was measured by Bio-Rad's protein assay and spectrometry at 595° A. Equal amounts of total protein were loaded on 4-12% gradient Bis-Tris gels, separated using the NuPAGE system (Invitrogen) and transferred onto nitrocellulose membrane. The membrane was probed with primary and secondary antibodies and signals were detected by chemiluminescence followed by autoradiography. The following antibodies were used: anti-CREB antibody (Cell Signaling, 1:1000), anti-phospho Ser^133 CREB antibody (Cell Signaling, 1:1000), anti P/Q type calcium channel antibody (Chemicon, 1:1000), and anti-actin antibody (Sigma, 1:1000).
Analysis of CREB regulation by P/Q-type calcium channels or Gαi. Primary cortical neurons were cultured as described. We followed the methods of Dolmetsch et al. (13) to analyze the effect of calcium channel blockers on CREB activity. We characterized the signaling properties of the endogenous P/Q-type calcium channels by monitoring the endogenous activity and total protein levels of CREB. In order to minimize the effect of other elements of calcium or G protein signaling following neuronal depolarization, all experiments were performed without depolarizing the neurons. Previous time-course studies have shown that short-term Ser^133 phosphorylation of CREB are transient events and prolonged Ser^133 phoaphorylation (more than 40 minutes) is required for transcriptional activity (13, 14, 15). Therefore, in these experiments we analyzed the endogenous Ser^133 phosphorylation and total CREB protein abundance following at least 2 hours treatment with agonist or antagonists of P/Q-type calcium channels and 2 hours treatment with agonist or antagonist of Gαi, ω-Agatoxin IVA (Calbiochem), pertussis toxin (Sigma), and Mas-7 (Calbiochem) were dissolved in the appropriate vehicle and added to the medium. Following the treatment, cortical neurons were harvested, lysed, and subjected to Western blot analysis as described.

[5] = 2 hours treatment, pertussis toxin approximately 0.1 or 0.2 μg/ml, MAS-7 approximately 5 or 10 μM
[6] = long-term (12 h) treatment, approximately 1 μM, vs vehicle
[7] = short-term (2.5 h) treatment, approximately 1 μM, vs vehicle

Molecule: O=S(=O)(NCCNC/C=C/c1ccc(Br)cc1)c1cccc2cnccc12 [H-89]
- serotonin-stimulated activity of CREB under inhibition of PKA (CREB [1]; about 10 μM H-89 30 minutes followed by 15 minutes about 10 μM serotonin): prevents serotonin from stimulating the activity of CREB

Molecule: NCCc1c[nH]c2ccc(O)cc12 [serotonin]
- activity of CREB (Ser133 phosphorylation) (CREB [1]; 10 μM for 15 minutes, primary neurons, vs vehicle): most robust effect
- activity of CREB on serotonin treatment following activation of PKA by forskolin, compared to serotonin only (CREB [1]; about 10 μM forskolin 30 minutes followed by 15 minutes about 10 μM serotonin): did not affect the activity of CREB
- activity of CREB, individual treatments (CREB [1]; about 10 μM, forskolin 30 minutes, serotonin 15 minutes, primary neurons): activate CREB
- activity of CREB (phospho-Ser133 staining) in neuronal and non-neuronal cells (CREB [2]; primary cortical culture, triple labeled with phospho-CREB, Map-2, DRAQ-5): only increased the activity of CREB in the neurons
- effect of serotonin on the activity of CREB in neurons when added after forskolin (CREB [2]; serotonin added after treatment with forskolin): attenuated
- Ser133 CREB phosphorylation (CREB [3]): can induce

Molecule: pertussis toxin
- Ser133 phosphorylation of CREB (CREB [4]; [5]): increase
- abundance of CREB (CREB [4]; [5]): increase

Molecule: ω-Agatoxin IVA
- abundance of CREB (CREB [4]; [6]): decreased
- phosphorylation of CREB at Ser133 (CREB [4]; [6]): decreased
- phosphorylation of CREB at Ser133 (CREB [4]; [7]): increased
- total abundance of CREB (CREB [4]; [7]): without changing
